Columns and labels:
Experiment in all cases: selective drug sensitivity score (sDSS, relative to normal bone marrow) (sDSS (score)); higher = more potent and effective on the cell line relative to normal bone marrow cells
Details in all cases: 72 h
MOLT-16 = test system: MOLT-16
MOLT-14 = test system: MOLT-14
CCRF-HSB2 = test system: CCRF-HSB2
P30-OHKUBO = test system: P30-OHKUBO
REH = test system: REH
KARPAS-45 = test system: KARPAS-45
MOLT-4 = test system: MOLT-4
NALL-1 = test system: NALL-1
HAL-01 = test system: HAL-01
PEER = test system: PEER
COG-LL-355h = test system: COG-LL-355h
MHH-CALL-2 = test system: MHH-CALL-2
KASUMI-9 = test system: KASUMI-9
SEM cells = test system: SEM cells
MHH-CALL-4 = test system: MHH-CALL-4
SUP-B15 = test system: SUP-B15
MN-60 = test system: MN-60
KOPN-8 = test system: KOPN-8
HPB-ALL = test system: HPB-ALL
TANOUE = test system: TANOUE
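Also: ALL cell lines in 384-well plates, five doses spanning 10,000-fold, each plate scaled between vehicle and 100 µmol/L benzalkonium chloride controls, sDSS an adapted area-under-curve metric.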

| SMILES | selective drug sensitivity score (MOLT-16) | selective drug sensitivity score (MOLT-14) | selective drug sensitivity score (CCRF-HSB2) | selective drug sensitivity score (P30-OHKUBO) | selective drug sensitivity score (REH) | selective drug sensitivity score (KARPAS-45) | selective drug sensitivity score (MOLT-4) | selective drug sensitivity score (NALL-1) | selective drug sensitivity score (HAL-01) | selective drug sensitivity score (PEER) | selective drug sensitivity score (COG-LL-355h) | selective drug sensitivity score (MHH-CALL-2) | selective drug sensitivity score (KASUMI-9) | selective drug sensitivity score (SEM cells) | selective drug sensitivity score (MHH-CALL-4) | selective drug sensitivity score (SUP-B15) | selective drug sensitivity score (MN-60) | selective drug sensitivity score (KOPN-8) | selective drug sensitivity score (HPB-ALL) | selective drug sensitivity score (TANOUE) |
| --- | --- | --- | --- | --- | --- | --- | --- | --- | --- | --- | --- | --- | --- | --- | --- | --- | --- | --- | --- | --- |
| Nc1ccccc1NC(=O)c1ccc(CNC(=O)OCc2cccnc2)cc1 [Entinostat] (top concentration 10000 nM) | 6.58 | 7.98 | 3.28 | 5.68 | 2.68 | 9.48 | 1.48 | -0.82 | 2.58 | 6.88 | 1.98 | 8.98 | 8.28 | 12.9 | 8.88 | 7.08 | 1.68 | 11.6 | 4.28 | -8.52 |
| C#Cc1cccc(Nc2ncnc3cc(OCCOC)c(OCCOC)cc23)c1 [Erlotinib] (top concentration 10000 nM) | 4.36 | 4.06 | 4.66 | 2.96 | -0.84 | 2.86 | 1.56 | -1.24 | 0.46 | 5.16 | 3.46 | 1.76 | 3.26 | 1.86 | -1.24 | 8.96 | 0.96 | 7.06 | 0.66 | -1.24 |
| O=C(Nc1nc2cccc(-c3ccc(CN4CCS(=O)(=O)CC4)cc3)n2n1)C1CC1 [Filgotinib] (top concentration 10000 nM) | 4.86 | -0.44 | -2.54 | 2.56 | 1.16 | -1.04 | -5.34 | 5.86 | 5.66 | -2.04 | 0.96 | 5.36 | 0.26 | 1.96 | 2.86 | -0.64 | -2.64 | 5.46 | -1.34 | -5.34 |
| C[C@H]1C=C2C(=O)O[C@H]3CC[C@@H](C1)[C@@]23O [Galiellalactone] (top concentration 25000 nM) | 3.36 | 5.26 | 2.76 | 5.26 | 3.66 | 5.16 | -0.44 | -4.54 | 6.06 | 1.66 | 3.66 | 4.16 | 6.76 | 3.56 | -3.84 | 3.46 | 2.46 | 4.16 | 5.16 | -0.94 |
| CN(C)C1CCN(C(=O)c2ccc(NC(=O)Nc3ccc(-c4nc(N5CCOCC5)nc(N5CCOCC5)n4)cc3)cc2)CC1 [Gedatolisib] (top concentration 1000 nM) | 15.9 | -3.24 | 8.86 | 15.2 | 9.16 | 3.76 | 5.46 | 1.16 | -4.54 | 4.06 | 4.16 | 3.26 | 9.36 | 1.16 | 3.66 | 8.36 | 6.26 | 10.1 | -0.04 | -1.04 |
| Nc1ccn([C@@H]2O[C@H](CO)[C@@H](O)C2(F)F)c(=O)n1 [Gemcitabine] (top concentration 1000 nM) | 21.5 | 14.3 | 22 | 18 | 13 | -7.44 | 10.4 | 10.3 | 20.4 | 5.06 | 7.16 | 21.6 | 16.3 | 24.9 | 12.9 | 17.1 | -0.34 | 26.4 | 0.96 | -7.34 |
| COc1cc2c(cc1-c1c(C)noc1C)ncc1[nH]c(=O)n([C@H](C)c3ccccn3)c12 [I-BET151] (top concentration 10000 nM) | 5.96 | 0.46 | 0.06 | 7.16 | -2.24 | 9.16 | -4.34 | -0.14 | 1.26 | 1.26 | 1.86 | 6.96 | 11.2 | 10.5 | 5.96 | 5.96 | 6.76 | 11.8 | 1.36 | -2.84 |
| O=C1CCc2c(Oc3ccc4c(c3)[C@@H]3[C@H](O4)[C@H]3c3nc4cc(C(F)(F)F)ccc4[nH]3)ccnc2N1 [Lifirafenib (BGB-283)] (top concentration 10000 nM) | 3.98 | 4.58 | 8.88 | 5.28 | 3.48 | 2.88 | 1.38 | 8.28 | 6.48 | 10.7 | 4.78 | 4.88 | 5.58 | 15.7 | 7.58 | 17 | 1.48 | 13.1 | 0.98 | 0.48 |
| NC(=O)N1CCC(CC(=O)N2CCC([C@H]3c4ncc(Br)cc4CCc4cc(Cl)cc(Br)c43)CC2)CC1 [Lonafarnib] (top concentration 100000 nM) | 11.2 | 14.1 | 9.14 | 7.84 | 8.04 | 24.1 | 10.5 | 1.54 | 3.44 | 5.94 | 9.34 | 9.24 | 9.14 | 14.1 | 7.44 | 11.9 | 2.24 | 12.8 | 9.84 | -3.96 |
| NC1(c2ccc(-c3nc4ccn5c(=O)[nH]nc5c4cc3-c3ccccc3)cc2)CCC1 [MK-2206] (top concentration 1000 nM) | 6.16 | -1.64 | 3.26 | 6.36 | 6.26 | 2.26 | 2.76 | 6.26 | 6.96 | -1.64 | 5.06 | 9.66 | 4.36 | 4.36 | 5.76 | -0.44 | -1.64 | 3.46 | 1.06 | -1.64 |
| O=C(Nc1cccc(NC(=O)c2cccc(O)c2O)c1)c1cccc(O)c1O [MST-312] (top concentration 10000 nM) | 17.3 | 5.8 | 12.8 | 8.1 | 7.4 | 8.1 | 9.2 | 0.8 | 7.6 | 9.4 | 3.2 | 10.8 | 5 | 0.6 | 1.8 | 9.5 | 9.8 | 15.2 | 8.7 | 3.7 |
| CC(=O)O[C@]1(C(C)=O)CC[C@H]2[C@@H]3C=C(C)C4=CC(=O)CC[C@]4(C)[C@H]3CC[C@@]21C [Megestrol_acetate] (top concentration 10000 nM) | 0.32 | 0.22 | 0.62 | 4.42 | 0.52 | 2.72 | 0.02 | 6.52 | 3.32 | 0.32 | 0.52 | 14.5 | 3.92 | 3.42 | 7.52 | 0.32 | -0.58 | 3.02 | -0.58 | -0.38 |
| CO[C@@H]1[C@H](N(C)C(=O)c2ccccc2)C[C@H]2O[C@]1(C)n1c3ccccc3c3c4c(c5c6ccccc6n2c5c31)C(=O)NC4 [Midostaurin] (top concentration 10000 nM) | 12.5 | 11.6 | 11.7 | 14.4 | 3.66 | 4.06 | 8.66 | 5.36 | 3.06 | 4.16 | 4.66 | 3.86 | 11.7 | 19.3 | 3.66 | 8.96 | -1.24 | 12.1 | 4.36 | -7.24 |
| CCCCCCCCCCCCCCCCOP(=O)([O-])OCC[N+](C)(C)C [Miltefosine] (top concentration 100000 nM) | -1.34 | 0.76 | 7.26 | 2.26 | 2.76 | 2.26 | 0.26 | 5.26 | -1.34 | 13.1 | 1.36 | 6.96 | 0.46 | 4.36 | -1.34 | 2.36 | 3.26 | 7.56 | -2.94 | 1.76 |
| Nc1ccccc1NC(=O)c1ccc(CNc2nccc(-c3cccnc3)n2)cc1 [Mocetinostat] (top concentration 10000 nM) | 9.04 | 9.14 | 3.94 | 7.54 | 3.94 | 8.84 | 5.24 | -3.16 | 2.14 | 9.24 | 4.24 | 7.74 | 9.14 | 9.04 | 8.04 | 9.64 | 1.34 | 9.24 | 8.64 | -8.46 |
| CCNC(=O)C[C@@H]1N=C(c2ccc(Cl)cc2)c2cc(OC)ccc2-n2c(C)nnc21 [Molibresib] (top concentration 10000 nM) | 4.9 | -2.1 | -0.5 | 6.4 | 0.8 | 5.3 | -4.4 | 3.4 | 2.7 | -3 | 1.7 | 8.4 | 9.1 | 7.7 | 6.9 | 3.2 | 6.3 | 10.6 | 0.8 | -6.2 |
| Nc1ncnc2c1c(-c1cccc(OCc3ccccc3)c1)cn2[C@H]1C[C@@H](CN2CCC2)C1 [NVP-AEW541] (top concentration 10000 nM) | -2.92 | -1.62 | -0.62 | -2.02 | 0.88 | -0.92 | -3.22 | -0.42 | 0.58 | 0.38 | 5.38 | 3.28 | -2.72 | 1.38 | 0.08 | -2.02 | -3.22 | -2.62 | 1.58 | -6.02 |
| CN[C@@H](C)C(=O)N[C@H](C(=O)N1CCC[C@H]1c1nc(C(=O)c2ccc(F)cc2)cs1)C1CCCCC1 [NVP-LCL161] (top concentration 25000 nM) | -1.62 | -3.52 | 1.88 | -1.12 | 2.38 | -1.82 | -4.32 | 2.48 | 7.88 | -2.72 | 12.2 | 3.98 | -2.72 | -0.22 | 1.58 | -3.82 | -5.72 | 0.28 | -2.62 | -5.82 |

— the supplement of paper PMC8967900
